Measurements taken from patent US20130095151A1, “BROAD SPECTRUM SUNSCREEN COMPOSITION COMPRISING 2 HYDROXY SULFOBETAINE OF CINNAMIDOALKYL AMINE” (GALAXY SURFACTANTS LTD., priority 2010, published 2013).

How the values were obtained:
[1] = free acid, not neutralised; cited from earlier work
[2] = photostability: remaining content of AVB after exposing the formulas to sunlight, UV spectrophotometer vs unexposed control; assay type: physicochemical; conditions: in sunscreen creams with AVB/OCN
Method: Furthermore, the formulas I to 4 above where tested for photostability by exposing the formulas to sunlight for three hours (10 am to 1 pm, 2 Jun. 2011, Navi Mumbai, INDIA). The remaining content of AVB was measured using UV Spectrophotometer and compared to unexposed control.

SMILES | solubility in water [1] [% w/w] | photostability compared to PBSA and OMC [2]
O=S(=O)(O)c1ccc2[nH]c(-c3ccccc3)nc2c1 [Phenylbenzimidazole Sulfonic Acid] | 0.25 | 
COc1ccc(/C=C/C(=O)NCCC[N+](C)(C)CC(O)CS(=O)(=O)[O-])cc1 (centres unmarked) [SunBeat, 3-(N-p-Methoxycinnamidopropyl, N,N-Dimethyl Ammonium)-2-Hydroxypropane-1-Sulphonate] |  | enhanced photostability
